Measurements taken from PubChem BioAssay AID606 (Columbia University Molecular Screening Center, 2007).
Calls of active or inactive are those of the source.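 The calls were made as follows: active = IC50 under 40 µM in the dose-response test; inactive = IC50 of 40 µM or more, or never dose-tested.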

Molecular target: Tyrosine-protein phosphatase non-receptor type 22 (Homo sapiens) (UniProt Q9Y2R2)
Test: inhibition of human PTPN22 tyrosine phosphatase – biochemical, DiFMUP fluorescence, recombinant catalytic domain, 10 µM, primary screen (AID 606)
Conditions: recombinant LYP catalytic domain

Chain of Tyrosine-protein phosphatase non-receptor type 22 (Homo sapiens) (Q9Y2R2 whole entry, looked up, the tested form may be a part): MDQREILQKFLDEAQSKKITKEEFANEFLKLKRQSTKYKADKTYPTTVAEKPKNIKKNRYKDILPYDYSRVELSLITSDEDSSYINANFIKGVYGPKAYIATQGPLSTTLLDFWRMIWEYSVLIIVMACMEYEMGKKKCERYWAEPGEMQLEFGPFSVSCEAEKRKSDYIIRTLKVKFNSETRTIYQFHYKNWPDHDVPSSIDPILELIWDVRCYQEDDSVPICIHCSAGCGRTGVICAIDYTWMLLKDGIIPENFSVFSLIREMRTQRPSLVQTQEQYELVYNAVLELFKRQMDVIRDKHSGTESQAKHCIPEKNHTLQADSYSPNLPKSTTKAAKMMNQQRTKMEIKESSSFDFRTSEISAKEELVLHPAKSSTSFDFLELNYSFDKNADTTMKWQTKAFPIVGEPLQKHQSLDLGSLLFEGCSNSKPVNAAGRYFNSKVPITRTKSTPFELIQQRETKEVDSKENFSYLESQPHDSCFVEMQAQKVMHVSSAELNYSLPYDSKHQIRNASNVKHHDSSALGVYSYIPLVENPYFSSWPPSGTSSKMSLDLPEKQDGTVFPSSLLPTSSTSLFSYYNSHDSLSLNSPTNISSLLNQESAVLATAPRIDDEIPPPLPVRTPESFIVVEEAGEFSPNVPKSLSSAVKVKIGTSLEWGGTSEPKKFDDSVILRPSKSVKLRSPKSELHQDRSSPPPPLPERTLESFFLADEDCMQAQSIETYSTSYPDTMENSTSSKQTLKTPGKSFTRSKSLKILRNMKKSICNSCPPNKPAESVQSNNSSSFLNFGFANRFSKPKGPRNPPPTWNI

With `Oc1ccc2ccccc2c1C=NC12CN3CCN(CN(C3)C1)C2` the IC50 was > 40 µM (inactive).
